The values that follow are results of earlier work, collected in patent US10882883B2, “Derivatives of amphotericin B” (Sfunga Therapeutics, Inc., priority 2015, dated 2021).

Each structure is given as a SMILES string.

For series [1] the following is noted: Wilcock et al., J Am Chem Soc 135: 8488-91 (2013).
The conditions of series [2]: Wilcock et al., J Am Chem Soc 135: 8488-91 (2013). The source holds these as a separate data set.
The next series deals with yeast. The settings on record: in vitro studies; WO 2014/165676.

For `CC1C=CC=CC=CC=CC=CC=CC=CC(OC2CC(N)C(O)C(C)O2)CC2OC(O)(CC(O)CC(O)C(O)CCC(O)CC(O)CC(=O)OC(C)C(C)C1O)CC(O)C2C(=O)O` (stereo not drawn) [C2′deOAmB], the ergosterol-binding ability entry in series [1] is listed as “retains ergosterol-binding ability”. For the same molecule, the binding to cholesterol entry in series [2] is recorded as “no binding to cholesterol”. The toxicity to yeast entry in the series on yeast was “toxic to yeast”.
